Data as given in PubChem BioAssay AID1963436 (Molecular Pharmacology Branch, DTP, NCI, 2024).

Test system: OVCAR-5 complex spheroid (HUVEC/MSC), viability % T/C
Assay: Anticancer human tumor OVCAR-5 cell line growth inhibition [Asc];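 also: spheroids exposed to agents for 7 days before readout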;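 as to viability, T/C: 100% = DMSO vehicle-treated wells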
Conditions: for IC50: curve of first compound; for viability, T/C: stronger effect = lower value
Method in brief: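 Complex solid-tumor spheroids incorporating human endothelial and mesenchymal stem cells received single agents or combinations over half-log dilution ranges anchored to clinical Cmax.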

[1] = second compound 0.01 µM, first compound 0.0316 µM
[2] = second compound 0.01 µM, first compound 0.1 µM
[3] = second compound 0.01 µM, first compound 0.316 µM
[4] = second compound 0.01 µM, first compound 1 µM
[5] = second compound 0.0316 µM, first compound 0.0316 µM
[6] = second compound 0.0316 µM, first compound 0.1 µM
[7] = second compound 0.0316 µM, first compound 0.316 µM
[8] = second compound 0.0316 µM, first compound 1 µM
[9] = second compound 0.1 µM, first compound 0.0316 µM
[10] = second compound 0.1 µM, first compound 0.1 µM
[11] = second compound 0.1 µM, first compound 0.316 µM
[12] = second compound 0.1 µM, first compound 1 µM
[13] = second compound 0.316 µM, first compound 0.0316 µM
[14] = second compound 0.316 µM, first compound 0.1 µM
[15] = second compound 0.316 µM, first compound 0.316 µM
[16] = second compound 0.316 µM, first compound 1 µM
[17] = second compound 1 µM, first compound 0.0316 µM
[18] = second compound 1 µM, first compound 0.1 µM
[19] = second compound 1 µM, first compound 0.316 µM
[20] = second compound 1 µM, first compound 1 µM
[21] = second compound 0.01 µM, first compound 0.00316 µM
[22] = second compound 0.01 µM, first compound 0.01 µM
[23] = second compound 0.0316 µM, first compound 0.00316 µM
[24] = second compound 0.0316 µM, first compound 0.01 µM
[25] = second compound 0.1 µM, first compound 0.00316 µM
[26] = second compound 0.1 µM, first compound 0.01 µM
[27] = second compound 0.316 µM, first compound 0.00316 µM
[28] = second compound 0.316 µM, first compound 0.01 µM
[29] = second compound 1 µM, first compound 0.00316 µM
[30] = second compound 1 µM, first compound 0.01 µM

Structure (SMILES)	IC50 (second compound 0.01 µM)	IC50 (second compound 0.0316 µM)	IC50 (second compound 0.1 µM)	IC50 (second compound 0.316 µM)	IC50 (second compound 1 µM)	viability, T/C [1]	viability, T/C [2]	viability, T/C [3]	viability, T/C [4]	viability, T/C [5]	viability, T/C [6]	viability, T/C [7]	viability, T/C [8]	viability, T/C [9]	viability, T/C [10]	viability, T/C [11]	viability, T/C [13]	viability, T/C [14]	viability, T/C [17]	viability, T/C [18]	further results
C=CC(=O)N1CCN(c2nc(=O)n(-c3c(C)ccnc3C(C)C)c3nc(-c4c(O)cccc4F)c(F)cc23)C(C)C1 (stereo not given) + CNC(C)C(=O)NC1CN(S(=O)(=O)c2cccc(S(=O)(=O)N3CCC4CCC(C(=O)NC(c5ccccc5)c5ccccc5)N4C(=O)C(NC(=O)C(C)NC)C3)c2)CCC2CCC(C(=O)NC(c3ccccc3)c3ccccc3)N2C1=O	> 10000 nM	> 10000 nM	> 10000 nM	> 10000 nM	> 10000 nM	88.4%	89.9%	85.9%	100%	74.4%	84.4%	83.3%	91.2%	76.3%	87%	90.6%	76.4%	83.5%	92.9%	100%	viability, T/C (second compound 0.01 µM, first compound 3.16 µM): 115%; viability, T/C (second compound 0.01 µM, first compound 10 µM): 105%; viability, T/C (second compound 0.0316 µM, first compound 3.16 µM): 106%; viability, T/C (second compound 0.0316 µM, first compound 10 µM): 104%; viability, T/C [12]: 88.2%; viability, T/C (second compound 0.1 µM, first compound 3.16 µM): 109%; viability, T/C (second compound 0.1 µM, first compound 10 µM): 103%; viability, T/C [15]: 84.9%; viability, T/C [16]: 90.4%; viability, T/C (second compound 0.316 µM, first compound 3.16 µM): 104%; viability, T/C (second compound 0.316 µM, first compound 10 µM): 109%; viability, T/C [19]: 90.4%; viability, T/C [20]: 96.7%; viability, T/C (second compound 1 µM, first compound 3.16 µM): 103%; viability, T/C (second compound 1 µM, first compound 10 µM): 102%
COc1c(OCCCN2CCOCC2)ccc2c3n(c(=NC(=O)c4cnc(N)nc4)nc12)CCN3 + CNC(C)C(=O)NC1CN(S(=O)(=O)c2cccc(S(=O)(=O)N3CCC4CCC(C(=O)NC(c5ccccc5)c5ccccc5)N4C(=O)C(NC(=O)C(C)NC)C3)c2)CCC2CCC(C(=O)NC(c3ccccc3)c3ccccc3)N2C1=O	29.5 nM	22.4 nM	19.5 nM	18.7 nM	17.6 nM	48%	35%	17.1%	8.86%	42.5%	30.2%	17.6%	7.75%	41.5%	26.3%	15.9%	41.7%	25.3%	42.1%	27.1%	viability, T/C [21]: 93.3%; viability, T/C [22]: 67.4%; viability, T/C [23]: 69.8%; viability, T/C [24]: 63.6%; viability, T/C [25]: 68%; viability, T/C [26]: 61.5%; viability, T/C [12]: 7.03%; viability, T/C [27]: 67.1%; viability, T/C [28]: 59.9%; viability, T/C [15]: 13.1%; viability, T/C [16]: 6.27%; viability, T/C [29]: 82.9%; viability, T/C [30]: 56.1%; viability, T/C [19]: 12.3%; viability, T/C [20]: 6.51%
NC1CCC(NC2CC2c2ccccc2)CC1 (stereo not given) + CNC(C)C(=O)NC1CN(S(=O)(=O)c2cccc(S(=O)(=O)N3CCC4CCC(C(=O)NC(c5ccccc5)c5ccccc5)N4C(=O)C(NC(=O)C(C)NC)C3)c2)CCC2CCC(C(=O)NC(c3ccccc3)c3ccccc3)N2C1=O	> 100 nM	> 100 nM	> 100 nM	> 100 nM	> 100 nM	80.8%	79.9%			69.1%	66.9%			74.5%	71%		75.1%	75.7%	80.8%	78.1%	viability, T/C (second compound 0.01 µM, first compound 0.000316 µM): 92.9%; viability, T/C (second compound 0.01 µM, first compound 0.001 µM): 89.8%; viability, T/C [21]: 80.8%; viability, T/C [22]: 84.8%; viability, T/C (second compound 0.0316 µM, first compound 0.000316 µM): 75.8%; viability, T/C (second compound 0.0316 µM, first compound 0.001 µM): 77.7%; viability, T/C [23]: 75.6%; viability, T/C [24]: 71.5%; viability, T/C (second compound 0.1 µM, first compound 0.000316 µM): 76.5%; viability, T/C (second compound 0.1 µM, first compound 0.001 µM): 70%; viability, T/C [25]: 75.5%; viability, T/C [26]: 67.3%; viability, T/C (second compound 0.316 µM, first compound 0.000316 µM): 66.1%; viability, T/C (second compound 0.316 µM, first compound 0.001 µM): 73%; viability, T/C [27]: 66.2%; viability, T/C [28]: 70.4%; viability, T/C (second compound 1 µM, first compound 0.000316 µM): 72.1%; viability, T/C (second compound 1 µM, first compound 0.001 µM): 74.1%; viability, T/C [29]: 70.5%; viability, T/C [30]: 72.4%
